Legend:
Experiment in all cases: relative viability (nuclei count vs DMSO), 5 days (fraction); higher = more cells survive
Elesclomol + Bortezomib = compound: CN(NC(=O)CC(=O)NN(C)C(=S)c1ccccc1)C(=S)c1ccccc1 [Elesclomol] + CC(C)C[C@H](NC(=O)[C@H](Cc1ccccc1)NC(=O)c1cnccn1)B(O)O [Bortezomib] (partner 0.002 µM)
Outline: (§1)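 Relative viability is defined as nuclei in treated wells over nuclei in vehicle wells. Duplicate plates were run and medians reported. Lung cancer cell lines in 1536-well plates were dosed by pin tool one day after seeding, with one drug or with a fixed anchor-drug dose plus five library-drug doses (not always all listed) in √10 steps, and nuclei were counted after 5 days.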

Elesclomol + Pictilisib = compound: CN(NC(=O)CC(=O)NN(C)C(=S)c1ccccc1)C(=S)c1ccccc1 [Elesclomol] + CS(=O)(=O)N1CCN(Cc2cc3nc(-c4cccc5[nH]ncc45)nc(N4CCOCC4)c3s2)CC1 [Pictilisib] (partner 1 µM)
Outline: as §1

Elesclomol + Crizotinib = compound: CN(NC(=O)CC(=O)NN(C)C(=S)c1ccccc1)C(=S)c1ccccc1 [Elesclomol] + C[C@@H](Oc1cc(-c2cnn(C3CCNCC3)c2)cnc1N)c1c(Cl)ccc(F)c1Cl [Crizotinib] (partner 1 µM)
Outline: as §1

Elesclomol + Linsitinib = compound: CN(NC(=O)CC(=O)NN(C)C(=S)c1ccccc1)C(=S)c1ccccc1 [Elesclomol] + C[C@]1(O)C[C@@H](c2nc(-c3ccc4ccc(-c5ccccc5)nc4c3)c3c(N)nccn32)C1 [Linsitinib] (partner 1 µM)
Outline: as §1

Elesclomol + Alpelisib = compound: CN(NC(=O)CC(=O)NN(C)C(=S)c1ccccc1)C(=S)c1ccccc1 [Elesclomol] + Cc1nc(NC(=O)N2CCC[C@H]2C(N)=O)sc1-c1ccnc(C(C)(C)C(F)(F)F)c1 [Alpelisib] (partner 2 µM)
Outline: as §1

Row | Cell Line | relative viability (Elesclomol + Bortezomib; first compound 0.003162 µM) | relative viability (Elesclomol + Bortezomib; first compound 0.01 µM) | relative viability (Elesclomol + Bortezomib; first compound 0.03162 µM) | relative viability (Elesclomol + Bortezomib; first compound 0.1 µM) | relative viability (Elesclomol + Pictilisib; first compound 0.003162 µM) | relative viability (Elesclomol + Pictilisib; first compound 0.01 µM) | relative viability (Elesclomol + Pictilisib; first compound 0.03162 µM) | relative viability (Elesclomol + Pictilisib; first compound 0.1 µM) | relative viability (Elesclomol + Crizotinib; first compound 0.003162 µM) | relative viability (Elesclomol + Crizotinib; first compound 0.01 µM) | relative viability (Elesclomol + Crizotinib; first compound 0.03162 µM) | relative viability (Elesclomol + Crizotinib; first compound 0.1 µM) | relative viability (Elesclomol + Linsitinib; first compound 0.003162 µM) | relative viability (Elesclomol + Linsitinib; first compound 0.01 µM) | relative viability (Elesclomol + Linsitinib; first compound 0.03162 µM) | relative viability (Elesclomol + Linsitinib; first compound 0.1 µM) | relative viability (Elesclomol + Alpelisib; first compound 0.003162 µM) | relative viability (Elesclomol + Alpelisib; first compound 0.01 µM) | relative viability (Elesclomol + Alpelisib; first compound 0.03162 µM) | relative viability (Elesclomol + Alpelisib; first compound 0.1 µM)
1 | HCC-15 | 0.998 | 0.905 | 0.662 | 0.42 | 0.719 | 0.522 | 0.523 | 0.289 | 0.753 | 0.667 | 0.556 | 0.259 | 0.882 | 0.735 | 0.61 | 0.38 | 0.931 | 0.645 | 0.559 | 0.236
2 | HCC-44 | 0.906 | 0.794 | 0.876 | 0.628 | 0.592 | 0.578 | 0.554 | 0.322 | 0.767 | 0.73 | 0.808 | 0.457 | 0.678 | 0.604 | 0.623 | 0.345 | 0.812 | 0.723 | 0.768 | 0.371
3 | HCC-78 | 0.487 | 0.419 | 0.447 | 0.494 | 0.252 | 0.2 | 0.229 | 0.217 | 0.356 | 0.325 | 0.326 | 0.336 | 0.425 | 0.521 | 0.497 | 0.408 | 0.27 | 0.354 | 0.325 | 0.307
4 | HCC-366 | 1.09 | 1.04 | 0.688 | 0.0134 | 0.135 | 0.123 | 0.211 | 0.0502 | 0.566 | 0.616 | 0.112 | 0.0109 | 0.689 | 0.663 | 0.622 | 0.0082 | 0.437 | 0.491 | 0.359 | 0.0118
5 | HCC-827 | 1.03 | 0.998 | 0.947 | 0.999 | 1.03 | 0.988 | 1.04 | 0.811 | 0.965 | 0.94 | 0.96 | 0.675 | 0.959 | 0.851 | 1.03 | 0.707 | 0.98 | 1.01 | 0.975 | 0.657
6 | HOP-62 | 0.884 | 0.708 | 0.83 | 0.146 | 0.694 | 0.269 | 0.582 | 0.239 | 0.952 | 0.916 | 0.919 | 0.256 | 0.909 | 0.94 | 0.994 | 0.184 | 1.05 | 0.712 | 0.797 | 0.113
7 | IA-LM | 0.534 | 0.137 | 0.0664 | 0.0121 | 0.275 | 0.126 | 0.052 | 0.0237 | 0.746 | 0.343 | 0.0493 | 0.0241 | 0.47 | 0.265 | 0.134 | 0.022 | 0.789 | 0.164 | 0.076 | 0.027
8 | LC-2-ad | 0.978 | 0.337 | 0.11 | 0.0678 | 0.419 | 0.195 | 0.102 | 0.0937 | 0.423 | 0.251 | 0.194 | 0.238 | 0.91 | 0.761 | 0.117 | 0.112 | 0.85 | 0.495 | 0.111 | 0.116
9 | LK-2 | – | – | – | – | 0.418 | 0.177 | 0.149 | 0.117 | 0.224 | 0.213 | 0.124 | 0.106 | 0.428 | 0.21 | 0.0808 | 0.0624 | 0.843 | 0.254 | 0.137 | 0.107
10 | NCI-H358 | – | – | – | – | 0.24 | 0.196 | 0.191 | 0.163 | 0.215 | 0.151 | 0.204 | 0.171 | 0.279 | 0.234 | 0.152 | 0.156 | 0.43 | 0.163 | 0.166 | 0.142
11 | NCI-H1395 | – | – | – | – | 0.65 | 0.324 | 0.292 | 0.436 | – | – | – | – | 0.857 | 0.347 | 0.716 | 0.26 | 0.999 | 0.571 | 0.252 | 0.259
12 | NCI-H1650 | 0.229 | 0.206 | 0.165 | 0.16 | 0.185 | 0.177 | 0.18 | 0.15 | 0.325 | 0.221 | 0.255 | 0.122 | – | – | – | – | – | – | – | –
13 | NCI-H1793 | – | – | – | – | 0.273 | 0.307 | 0.335 | 0.178 | – | – | – | – | 0.901 | 0.733 | 0.927 | 0.25 | 0.759 | 0.654 | 0.768 | 0.164
14 | NCI-H1944 | – | – | – | – | 0.381 | 0.29 | 0.318 | 0.328 | 1.07 | 1.06 | 1 | 1.01 | 1.14 | 1.18 | 1.12 | 1.13 | 0.887 | 0.736 | 0.881 | 0.825
15 | NCI-H2170 | – | – | – | – | 0.328 | 0.266 | 0.298 | 0.193 | 1.26 | 0.956 | 1.17 | 0.653 | – | – | – | – | 0.808 | 0.722 | 0.708 | 0.403
16 | SK-MES-1 | – | – | – | – | 0.402 | 0.312 | 0.238 | 0.199 | 1.06 | 0.887 | 0.964 | 0.625 | 1.04 | 0.814 | 0.992 | 0.62 | 0.854 | 0.502 | 0.679 | 0.279

From the supplement of paper PMC10307832
